From patent US20260248767A1, “METHODS FOR INDUCING FERROPTOSIS IN CANCER” (Board of Regents, The University of Texas System, priority 2023, published 2026)

Test system: cells
Assay: Metabolomic analysis of vehicle or sulfite treated cells
Type: cell-based
Method: Metabolomic analysis was performed in vehicle or sulfite treated cells. An increase in the levels of 6-phospho-D-Gluconate (FIG. 3C), ribose phosphate (FIG. 3D), D-Glyceraldehyde 3-phosphate (FIG. 3E), D-sedoheptulose-1/7 phosphate (FIG. 3F), NDAP+/NADPH ratio (FIG. 3G), oxPPP shunting (FIG. 3H) were observed.
Metabolomic analysis was performed as previously described (Liu, X. et al. Nat Cell Biol 22, 476-486, doi: 10.1038/s41556-020-0496-x (2020)). Cells were seeded on 35-mm culture plates at a density sufficient to ensure approximately 70-80% confluence at the time of extraction. Metabolites were extracted at the indicated time points for subsequent analyses. Metabolites were extracted by rapidly aspirating the culture medium and then adding 500 μl of an 80% methanol: 20% water mixture at dry ice temperature. The plates were incubated on dry ice for 15 min before the cells were scraped into pre-chilled Eppendorf tubes. The cell debris was pelleted by centrifugation at 13,000 ref for 5 min at 4° C. and the supernatant was transferred into a fresh tube and stored on dry ice until analysis. Just before analysis, 500 μl of extract was dried under nitrogen gas flow and then resuspended in 100 μl water.
The complete platform consists of an Accela 1250 HPLC system, Accela Open Autosampler, MayLab Mistraswitch column oven and Exactive orbitrap mass spectrometer, controlled by the Xcalibur 3.0.63 software package. Chromatography was performed with a Phenomenex Synergi Hydro-RP column (100×2 mm, 2.5 μm particle size). Solvent A is 10 mM tributylamine and 15 mm acetic acid in water; Solvent B is methanol. The gradient is: 0 min, 0% B; 2.5 min, 0% B; 5 min, 20% B; 7.5 min, 20% B; 13 min, 55% B; 15.5 min, 95% B; 18.5 min, 95% B; 19 min, 0% B; 25 min, 0% B. The injection volume was 10 μl. The column temperature was set to 40° C., and the flow rate was 200 μl/min. The Exactive was operated in negative ionization mode with an electrospray ionization interface. The instrument parameters are as follows: sheath gas flow rate 30 (arbitrary units), aux gas flow rate 10 (arbitrary units), sweep gas flow rate 3 (arbitrary units), spray voltage 3 kV, capillary temperature 325° C., capillary voltage −25 V, tube lens voltage −50 V. The scan range was set to 80-1,000 m/z, with a maximum inject time of 250 ms, resolution of 100,000 at 1 Hz, and AGC (automatic gain control) target 1×10^6. The data were analyzed using the MAVEN software suite with signal intensity determined as the Peak Area (Top). For metabolic labelling experiments, the data were corrected to account for the natural abundance of nitrogen-15 using IsoCorrectoR (Heinrich, P. et al. Sci Rep 8, 17910, doi: 10.1038/s41598-018-36293-4 (2018)).

[1] = sulfite vs vehicle treated cells

O=S([O-])[O-].[Na+].[Na+] [sulfite, sodium sulfite]
increase: Levels of S-sulfocysteine (sulfite treated samples) | level of 6-phospho-D-Gluconate [1] | level of D-Glyceraldehyde 3-phosphate [1] | level of D-sedoheptulose-1/7 phosphate [1] | level of ribose phosphate [1]
